Assay [1] deals with TGF-β1. The assay is described as follows: mRNA for TGF-β1 in macrophages, Northern blot. Format: cell-based, Mouse. Particulars: combined treatment of LPS with M6P or DCA. The method, then: (§1) The cells were washed with PBS, followed by addition of the extraction buffer provided with the kit (RNeasy RNA extraction kit). The lysed cells were scraped from the dish and collected in microtubes. Samples were either frozen at -70 °C before analysis or directly assessed following manufacturer protocol. Absorbance at 260 nm and 280 nm was measured and the integrity of RNA was evaluated by denaturing formaldehyde agarose gels stained with ethidium bromide.
Northern blot analysis was carried out as described previously (27). Briefly, total RNA samples (5 µg) were diluted in formaldehyde-MOPS buffer and subjected to electrophoresis in a denaturing 1.2 % Sea Kem GTG agarose gel along with the RNA size markers. RNA was transferred to a nitrocellulose membrane by capillary transfer. The blots were prehybridized for 3 h at 42° C in a solution containing 10% dextran sulfate, 2 x Denhardt's solution, 50% formamide, 5 x SSPE (0.75 M Sodium chloride, 0.05 M sodium phosphate, 0.005 M ethylenediaminetetraacetic acid)/ 0.1% SDS, and 250 µg/ml of sheared salmon testis DNA. Hybridization solution was essentially the same except that ^32P dCTP-labeled DNA probe and 150 µg/ml of salmon testis DNA were included. The hybridization was carried out for 16 h at 42° C. […]

The subject of another assay is TGF-β1 activation. Briefly: Macrophage activation assay (LPS-treated IC-21 macrophages plus fetal fibroblast conditioned media, TGF-β1 ELISA). Format: cell-based, Mouse. To be noted: for inhibition at 100 µM / inhibition at 50 µM: read-out: Inhibition of TGF-β1 Activation, % control (STD). The method, then: Cultured macrophages were lifted from the dish with 3 ml of PBS. The PBS was balanced with 15 ml of RPMI-1640 containing 10% FBS. The cells were counted and then seeded in 100 mm plates at 1x10^6 cells/dish. When the cultured macrophages reached approximately 70% confluency (2-3 days) they were washed with PBS and RPMI-1640 medium containing 5% FBS and 10 ng/ml LPS was applied (Figure 1). After 24 h of activation with LPS the cells were washed gently with PBS. At this point conditioned medium from confluent fetal dermal fibroblasts was collected and 5 ml was distributed into each dish containing macrophages. The cells were incubated for an additional 24 h, the media were collected, spun down at 600 x g for 10 min and stored at 4° C before TGF-β1 evaluation by ELISA. Each condition was done in duplicate. The cells, washed with PBS, were harvested for total RNA extraction.
Fetal dermal fibroblasts were seeded in 100 mm dishes at 1x10^6 cell/dish. The cells were grown to confluency (2-3 days). The cultures were washed with PBS and fresh medium, either DMEM supplemented with 10% FBS or AIM-V medium (a serum free medium) for serum-free conditions, was applied for 24 h (Figure 1). The medium was collected and combined in order to obtain a homogenous pool of latent TGF-β1. The collection of the medium was done just prior to application in the macrophage assay.
Each measurement was performed in duplicates.
(In general: An ELISA detects its analyte on a solid surface through an enzyme-linked reagent.)

The subject of a further assay is TGase II. The assay is described as follows: mRNA for TGase II in macrophages, RT-PCR with densitometry. Format: cell-based. To be noted: Mus musculus, Macrophage; macrophages treated with 1 µM hydrocortisone; densitometric analysis of RT-PCR products. The protocol:
as §1
(§2) The procedure used to transcribe the total RNA was described in detail previously (28). […]
(§3) A portion of the first strand cDNA reaction was used in PCR, which was carried out in 25 µl containing 16 mM Tris-HCl, pH 8.3, 50 mM KCl, 1.5 mM MgCl2, 0.01 % gelatin, 200 µM of each dNTPs, 1 µM each sense and antisense oligonucleotides and 2.5 units of AmpliTaq DNA polymerase. […] Sizes were determined using Q X 174 DNA/Hae III markers. […] Densitometry was used for quantitative analysis of the ethidium bromide stained gels.
In an attempt to identify the mechanism of this inhibition, the level of mRNA was evaluated for TGase II in macrophages treated with 1 µM hydrocortisone.

The next assay concerns M6P/IGF-II receptor. Briefly: Expression of M6P/IGF-II receptor mRNA in neonatal fibroblasts, semiquantitative RT-PCR. Type of assay: cell-based, human. The protocol:
(§4) Human neonatal fibroblasts were seeded in 100 mm dishes at 1 x 10^6 cells/dish. […] In addition, cells were treated with two concentrations of Mannose 1-Phosphate (M1P) (100 and 200 µM) for 24 and 48 h. […] Each treatment was run in duplicates and repetitive analyses were performed.
as §1
The procedure used to transcribe the total RNA was described in detail previously (28). Briefly, the reaction was carried out in a total volume of 25 µl containing 1x reverse transcriptase buffer (50 mM Tris-HCl, pH 8.3, 75 mM KCl, 3 mM MgCl2), 10 mM DTT (Dithiothreitol), 2.5 mM each of dNTPs (Deoxynucleotides), 100 µg/ml of acetylated BSA, 4 units of rRNasin (ribonuclease inhibitor), 200 units of SuperScript ™ RNase H^-Reverse Transcriptase, 0.1 µg of oligo (dT)12-18 and 1 µg of total RNA. Incubation was carried out for 1 h at 42 °C and was terminated by the addition of an equal volume of cold water.
A portion of the first strand cDNA reaction was used in PCR, which was carried out in 25 µl containing 16 mM Tris-HCl, pH 8.3, 50 mM KCl, 1.5 mM MgCl2, 0.01 % gelatin, 200 µM of each dNTPs, 1 µM each sense and antisense oligonucleotides and 2.5 units of AmpliTaq DNA polymerase. Amplification was carried out for 35 cycles. Each cycle consisted of denaturation 1 min at 95°C; annealing at 55°C (optimal for the pair of oligonucleotides used) for 2 min; and elongation at 72°C, 3 min. For the final cycle elongation was 7 min. Reaction products were separated by 2% agarose gel electrophoresis and were visualized by ethidium bromide staining. […] Restriction digests were performed in order to confirm PCR product specificity. Densitometry was used for quantitative analysis of the ethidium bromide stained gels.

The test system of assay [2] is TGF-β1. Briefly: Expression of TGF-β1 mRNA in neonatal fibroblasts, semiquantitative RT-PCR. Type of assay: cell-based, human. The method, then: as §4, §1, §2
A portion of the first strand cDNA reaction was used in PCR, which was carried out in 25 µl containing 16 mM Tris-HCl, pH 8.3, 50 mM KCl, 1.5 mM MgCl2, 0.01 % gelatin, 200 µM of each dNTPs, 1 µM each sense and antisense oligonucleotides and 2.5 units of AmpliTaq DNA polymerase. […] Densitometry was used for quantitative analysis of the ethidium bromide stained gels.

The next assay has as its system TGF-β receptor type I. The assay is described as follows: Expression of TGF-β receptor type I mRNA in neonatal fibroblasts, semiquantitative RT-PCR. Format: cell-based, human. To be noted: M6P treatment, during the time course (24 and 48 h). The method, then: as §4, §1, §2, §3
Another assay concerns M6P/IGF-II receptors. Briefly: Levels of M6P/IGF-II receptors within wounds treated with M6P. Format: in vivo. Particulars: 3 days post-wounding.

One may read the inhibition as the drop in the measured response relative to a control, in per cent.

Read-outs that look alike come from different tables or passages of the source.

Regarding `CN(C)c1cccc2c(S(=O)(=O)NCCCCCN)cccc12` [DCA, monodansylcadaverine], the “levels of mRNA for TGF-β1” value in the assay on TGF-β1 [1] is “remained the same”. Further, in the assay with TGF-β1 activation (100 µM, listed as Damylcadaverine), the “Inhibition of TGF-β1 Activation, % control (STD)” value (“Inhibition … % control (STD)” for short) is 18.3 (1.6) %. Also, in the assay on TGF-β1 activation (LPS+CM with serum, 100 µM), the “Total TGF-β1 (STD)” value is listed as 2302 (219.3) pg/ml. In addition, the inhibition at 100 µM in the assay on TGF-β1 activation (Mus musculus, 100 µM) turned out to be 18.3%.

In turn, `C[C@]12CCC(=O)C=C1CC[C@@H]1[C@@H]2[C@@H](O)C[C@@]2(C)[C@H]1CC[C@]2(O)C(=O)CO` [Hydrocortisone, hydrocortisone] registered a TGase II mRNA level, % of control at 1 µM in the assay on TGase II of 37.5%. Moreover, the inhibition at 1 µM in the assay with TGF-β1 activation (Mus musculus, read-out: Inhibition of TGF-β1, % Control (STD)) was 64%.

Consider `O=P(O)(O)O[C@H]1O[C@H](CO)[C@@H](O)[C@H](O)[C@@H]1O` [M1P, alpha-D(+) mannose 1-phosphate], for which, in the assay with M6P/IGF-II receptor (100 and 200 µM, 24 and 48 h), the “M6P/IGF-II receptor mRNA levels” value is “no effects”. Further, in the assay on TGF-β1 activation (Mus musculus), the inhibition at 100 µM came to 85.9%. The “TGF-β1 mRNA levels” value with TGF-β1 [2] (100 and 200 µM, 24 and 48 h) is “no effects”.

As to `O=P(O)(O)OC[C@H]1OC(O)[C@@H](O)[C@@H](O)[C@@H]1O` (stereo partly drawn) [M6P, D-mannose 6-phosphate], the “M6P/IGF II Receptor 24h” value in the assay with M6P/IGF-II receptor (M6P 1 µM) is on record as 98.4 (20.6); in the assay with M6P/IGF-II receptor (M6P 10 µM), 86.1 (3.2); in the assay on M6P/IGF-II receptor (M6P 50 µM) it was 74 (36.6); in the assay with M6P/IGF-II receptor (M6P 100 µM), 85.4 (25); with M6P/IGF-II receptor (M6P 200 µM), 57.5 (5.2). Further, the “M6P/IGF II Receptor 48h” value is listed as 112.8 (21.4) in the assay on M6P/IGF-II receptor (M6P 1 µM); 108 (7.1) in the assay with M6P/IGF-II receptor (M6P 10 µM); 59.3 (1.4) with M6P/IGF-II receptor (M6P 50 µM); 42.2 (3.2) with M6P/IGF-II receptor (M6P 100 µM); 39.6 (1.3) in the assay with M6P/IGF-II receptor (M6P 200 µM). Also, the “levels of mRNA for TGF-β1” value with TGF-β1 [1] is listed as “remained the same”. For the same compound, in the assay with TGF-β receptor type I, the “level of TGF-β receptor type I mRNA” value is on record as “unchanged”. Further, the “levels of the M6P/IGF-II receptors within the wounds” value in the assay with M6P/IGF-II receptors was “downregulated”. Further, the entries for the “Inhibition … % control (STD)” value with TGF-β1 activation (50 µM) and with TGF-β1 activation (100 µM) were 69.6 (1.7) % and 32.9 (11.5) %, respectively. The “Total TGF-β1 (STD)” value is on record as 1649.8 (71.7) pg/ml with TGF-β1 activation (LPS + CM serum-free, 100 µM) and 2472.6 (374.5) pg/ml in the assay on TGF-β1 activation (LPS+CM with serum, 100 µM). Moreover, the inhibition at 50 µM in the assay on TGF-β1 activation (Mus musculus, 50 µM) was 69.6%. The inhibition at 100 µM with TGF-β1 activation (Mus musculus, 100 µM) is 32.9%. For the same compound, the “TGF-β1 48 h” value in the assay with TGF-β1 [2] (M6P 100 µM, 48h) was 57.5 (15.9).

In the case of `Cl.Cl.NCCCCN` [Putrescine, putrescine-dihydrochloride], the entries for the “Inhibition … % control (STD)” value in the assay on TGF-β1 activation (50 µM) and in the assay on TGF-β1 activation (100 µM) were 33.4 (28.8) % and 80.6 (15.5) %, respectively. The inhibition at 50 µM with TGF-β1 activation (Mus musculus, 50 µM) was found to be 33.4%. The inhibition at 100 µM in the assay on TGF-β1 activation (Mus musculus, 100 µM) is 80.6 ± 15.5%.

The values above are taken from patent EP0956036B1, “ANTI-FIBROTIC AGENT ASSAY” (ETHICON, INC., priority 1996, dated 1998).
